Literature values as cited in patent US20060057183A1, “Indwelling stent” (priority 2003, published 2006).

Tested on: human vascular cells
Conditions: Mohacsi et al., J Heart Lung Transplant 1997

For `C=CC[C@@H]1/C=C(\C)C[C@H](C)C[C@H](OC)[C@H]2O[C@@](O)(C(=O)C(=O)N3CCCC[C@H]3C(=O)O[C@H](/C(C)=C/[C@@H]3CC[C@@H](O)[C@H](OC)C3)[C@H](C)[C@@H](O)CC1=O)[C@H](C)C[C@@H]2OC` [tacrolimus (FK506), Tacrolimus], the “antiproliferative effects on human vascular cells” value is listed as “antiproliferative effects”.
